Where two headings read alike, the source gives them in different places.
Assays:
cattle [1] = assay: Intravenous administration to cattle: serum NEFA and SUN levels; format: in vivo, cattle (Angus/Angus cross calves); settings: mean of five animals; for Δ % SUN 24 Hours (percent decrease in serum urea nitrogen compared with baseline T=0) / ΔNEFA 24 Hours (increase in NEFA in blood compared with baseline T=0): 40 μg per kilogram intravenously at 6:30 A.M. and 2:30 P.M., 24 hours post treatment; for ΔNEFA 15 Min. (increase in NEFA in blood compared with baseline T=0): 40 μg per kilogram intravenously, 15 minutes post treatment
Source text: Angus/Angus cross steer calves, both heifers and steers, weighing approximately 282 pounds (128 kg) initially to 788 pounds (358 kg) over the course of these studies, were placed in pens at 5 calves per pen. The cattle were acclimated to the pens for at least 1 week prior to initiating the study.
Calves were fed ad libitum twice daily, (approximately 6-15 pounds (2.7-6.8 kg)/day). During the treatment day, in the A.M. period, the feeding times were staggered to ensure that all animals were fed approximately one hour before the treatments were administered. During the P.M. treatment period, the cattle were fed immediately after receiving the P.M. injection.
After taking a pretreatment (T=0) blood sample from each animal, 40 μg per kilogram of a test compound was administered intravenously in the jugular vein at 6:30 A.M. and 2:30 P.M. Each test compound was administered at a concentration of 1.00-1.25 mg/ml in a treatment vehicle that was a 50/50 mixture of polyethylene glycol 200/water.
A blood sample was taken at fifteen minutes post-treatment (T+15 min). The calves were returned to their respective pens until their next treatment, approximately eight hours later. The next morning at 6:30 A.M. a blood sample was collected from all calves at 24 hours post-treatment (T+24h). All blood samples were analyzed for the non-esterified fatty acid level (NEFA) and serum urea nitrogen level (SUN). The post-treatment NEFA and SUN levels in each individual animal were compared with the levels found before treatment.

cattle [2] = assay: Oral administration (gavage) to cattle: serum NEFA and SUN levels; format: in vivo, cattle (Angus/Angus cross steer calves); settings: 1 mg per kilogram body weight oral gavage, mean of five animals; for change in vivo at 1 mg/kg: Bos taurus
Procedure: In the present example, fifteen head of Angus/Angus cross steer calves, weighing approximately 484 pounds (220 kg) initially to 604 pounds (274 kg) by the end of these three trials, were placed in pens in the cattle facilities, at 5 calves per pen. Standard vaccination and coccidal control were administered.
Calves were fed ad libitum twice daily, approximately 10-15 pounds (4.54-6.81 kg)/day. The feeding times were staggered once treatment was initiatedto ensure that all calves were fed approximately one hour before the treatments were administered and blood samples were obtained. During the A.M. treatment period, the cattle were prevented from returning to feed until the +180 minute blood sample had been collected.
Treatments were administered once a day via oral gavage. The treatments contained 1 mg of test compound per kilogram body weight and were administered in a 50/50 PEG 200/water vehicle, followed with a flush of 20 mls of 50/50 PEG 200/water.
A baseline blood sample (T=0) was taken immediately before the oral gavage treatment was administered. At 90 minutes post-treatment (T+90 min) another blood sample was taken. The cattle were returned to their designated pens until 180 minutes post-treatment (T+180 min), when a third blood sample was collected. The calves were not allowed access to their feed until they had completed the 180 minute blood sample. Additional blood samples were collected from each calf at 24 and 48 hours post treatment.
All blood samples were taken from the jugular vein and placed into serum tubes. Serum was assayed on an IL Monarch analyzer. Blood samples were collected pretreatment (T=0), 90 minutes post-treatment (T+90 min), 180 minutes post-treatment (T+180 min) and 24 hours post-treatment (T+24 h) and 48 hours post-treatment (T+48 h). Sera at T=0, T+90 min, T+180 min, T+24 h, and T+48 h were analyzed for NEFA and SUN.

chickens = assay: Anabolic effects when administered in feed to chickens; format: in vivo, chicken (Peterson-Hubbard male chicks)
Source text: Approximately 1500 Peterson-Hubbard day-old male chicks were used in a randomized, complete block design with 6 treatments (Control; Clenbuterol at 1 PPM; Compound 1 at 3 and 15 PPM (mg/kg feed); and Compound 5 at 3 and 15 PPM) using pen location in the barn as the blocking factor. Treatments were randomly allotted to pens within each block for a total of 6 pens per block and 6 blocks in the wing. Each treatment consisted of 6 pens, with 10 birds per pen, during the experimental period.
Day-of-age birds were obtained from Pine Manor Hatchery in Goshen, Ind. Approximately 40 birds per pen were setup at random upon receipt. On day 30 of the growout period, all birds were weighed and the 15 birds closest to the block mean were selected. These birds were allowed to acclimate until day 35 of age. On this day, all remaining birds were weighed again, and the 10 birds/pen closest to the block mean were chosen for the treatment phase. Birds were provided ad libitum access to feed and water throughout the trial. All birds were fed a 23% crude protein corn-soy ration from day 1 until day 18 of age. The feed was changed to a 20% crude protein corn-soy ration for day 18 to day 49. The treatment feed was mixed using the 20% crude protein corn-soy basal ration. Treatments were administered in the feed from day 35 through day 49. Feed consumption was calculated over the entire 14 day treatment period. Birds were weighed at trial completion (day 49), and transported to Purdue University meat laboratory for slaughter and carcass measurements on day 50. Weights of the hot carcass, fat pad, and viscera were taken on all animals. Weights of the bone-in, skin-on breast, and the bone-in, skin-on leg quarters were taken only on the control treatment and the high doses of both experimental compounds.

[3] = 24 hours post treatment, read-out: Δ % SUN 24 Hours (percent decrease in serum urea nitrogen compared with baseline T=0)
[4] = 48 hours post treatment, read-out: Δ % SUN 48 Hours (percent decrease in serum urea nitrogen compared with baseline T=0)
[5] = 3 PPM in feed, 14 day treatment period
[6] = 3 PPM in feed, 14 day treatment period (day 35 to 49)
[7] = 15 PPM in feed, 14 day treatment period
[8] = 15 PPM in feed, 14 day treatment period (day 35 to 49)
[9] = 1 PPM in feed, 14 day treatment period

Row | Compound | Δ % SUN 24 Hours (percent decrease in serum urea nitrogen compared with baseline T=0) (cattle [1]) [%] | ΔNEFA 24 Hours (increase in NEFA in blood compared with baseline T=0) (cattle [1]) [µmol/L] | ΔNEFA 15 Min. (increase in NEFA in blood compared with baseline T=0) (cattle [1]) [µmol/L] | ΔNEFA 24 Hours (increase in NEFA in blood compared with baseline T=0) (cattle [2]; 24 hours post treatment) [µmol/L] | change in vivo at 1 mg/kg (cattle [2]; [3]) [%] | change in vivo at 1 mg/kg (cattle [2]; [4]) [%] | improvement of feed efficiency (chickens; [5]) | increase in weight gain over control (chickens; [6]) [%] | improvement of feed efficiency (chickens; [7]) [%] | increase in weight gain over control (chickens; [8]) [%] | improvement in feed conversion versus control (chickens; [9]) | increase in weight gain over control (chickens; [9]) [%]
1 | CC(C)(Cc1ccc(Oc2ccc(C#N)cn2)cc1)NC[C@H](O)COc1cccc2[nH]ncc12 [Compound 3] | −24.7 | 1069.3 | 269.4 | 349 | -58 | -57 | – | – | – | – | – | –
2 | CC(C)(Cc1ccc(Oc2ccc(C#N)cn2)cc1)NC[C@H](O)COc1cccc2[nH]c(=O)[nH]c12 | – | – | – | 18 | 2 | 5 | – | – | – | – | – | –
3 | CC(C)(Cc1ccc(Oc2ccc(S(C)(=O)=O)cc2)cc1)NC[C@H](O)COc1cccc2[nH]c(=O)[nH]c12 | – | – | – | -6 | -10 | -6 | – | – | – | – | – | –
4 | CC(C)(Cc1ccc(Oc2ccc(C(N)=O)cc2)cc1)NC[C@H](O)COc1cccc2[nH]c(=S)[nH]c12 | – | – | – | 17 | -8 | -12 | – | – | – | – | – | –
5 | CC(C)(Cc1ccc(Oc2ncccc2C(N)=O)cc1)NC[C@H](O)COc1cccc2[nH]c(=O)[nH]c12 | – | – | – | 10 | -22 | -19 | – | – | – | – | – | –
6 | CC(C)(Cc1ccc(Oc2ccc(S(C)(=O)=O)cc2)cc1)NC[C@H](O)COc1cccc2[nH]ncc12 [Compound 5] | −25.4 | 1541.9 | 397.3 | 1216 | -33 | -60 | not improved | 2.65 | 3.27 | 8.85 | – | –
7 | CC(C)(Cc1ccc(Oc2ccc(C(=O)N3CCOCC3)cn2)cc1)NC[C@H](O)COc1cccc2[nH]ncc12 [Compound 4] | −40.1 | 1251.8 | 194.8 | 1129 | -47 | -48 | – | – | – | – | – | –
8 | CC(C)(C)NCC(O)c1cc(Cl)c(N)c(Cl)c1 (stereo not shown) [Clenbuterol] | – | – | – | – | – | – | – | – | – | – | did not show an improvement | 3.54
9 | CC(C)(Cc1ccc(Oc2ccc(S(C)(=O)=O)cc2)cc1)NC[C@H](O)COc1cccc2[nH]c(=S)[nH]c12 | – | – | – | 37 | -1 | -5 | – | – | – | – | – | –
10 | CC(C)(Cc1ccc(Oc2ccc(C#N)cn2)cc1)NC[C@H](O)COc1cccc2[nH]ccc12 | – | – | – | 63 | -55 | -40 | – | – | – | – | – | –
11 | CC(C)(Cc1ccc(Oc2ncccc2C(N)=O)cc1)NC[C@H](O)COc1cccc2[nH]c(=S)[nH]c12 | – | – | – | 101 | -17 | -13 | – | – | – | – | – | –
12 | CC(C)(Cc1ccc(Oc2ccc(C(N)=O)cn2)cc1)NC[C@H](O)COc1cccc2[nH]ncc12 [Compound 1] | −28.7 | 820.9 | 554.4 | 329 | -38 | -32 | not improved | 3.54 | 4.67 | 11.50 | – | –
13 | CC(C)(Cc1ccc(Oc2ccc(C(=O)N3CCOCC3)cn2)cc1)NC[C@H](O)COc1cccc2[nH]ccc12 | – | – | – | -47 | -45 | -28 | – | – | – | – | – | –
14 | CC(C)(Cc1ccc(Oc2ccc(C(=O)N3CCOCC3)cn2)cc1)NC[C@H](O)COc1cccc2[nH]c(=S)[nH]c12 | – | – | – | 6 | -18 | -15 | – | – | – | – | – | –
15 | CC(C)(Cc1ccc(Oc2ncccc2C(N)=O)cc1)NC[C@H](O)COc1cccc2[nH]ccc12 | – | – | – | -30 | -42 | -30 | – | – | – | – | – | –
